Test results reported in ChEMBL document CHEMBL2010638, “Synthesis and evaluation of disulfide bond mimetics of amylin-(1-8) as agents to treat osteoporosis” (Bioorg Med Chem, 2012).
The source made the active and inactive calls. The rule behind the calls is not given here. *1 amine or outer side, *2 acyl side, *3 side chain or, on linkers, in order; H or OH if unused. Where a SMILES comes first, the peptide text is derived from it. Bridges are numbered along the chain shown (N, C = ends). Triazole bridges read from a SMILES are 1,4-linked. [ ]: non-standard residue; d: D form. Dap(N3) = [N-]=[N+]=NC[C@H](N)C(=O)O; oXylylene = c1ccc(C[*:2])c(C[*:1])c1; pXylylene = c1cc(C[*:2])ccc1C[*:1]; Pra = C#CC[C@H](N)C(=O)O; CH2CH2 = C(C[*:2])[*:1]; X2 = O=C(CC[*:2])[*:1]; X1 = C(C[*:1])C[*:2]

The compounds below were run on Calvarial osteoblast (assay: Induction of osteoblast differentiation in rat fetal calvarial osteoblast assessed as [3H]thymidine incorporation at 10^-8 to 10^-10 after 6 hrs).
Type: functional, cell-based
With `C[C@H](NC(=O)[C@@H]1CSSC[C@H](NC(=O)[C@@H](N)CCCCN)C(=O)N[C@@H](CC(N)=O)C(=O)N[C@@H]([C@@H](C)O)C(=O)N[C@@H](C)C(=O)N[C@@H]([C@@H](C)O)C(=O)N1)C(N)=O` (H-KCNTATCA-NH2; disulfide 2-7) the Activity was “Active”. In the case of `C[C@H](NC(=O)[C@@H]1CSCCSC[C@H](NC(=O)[C@@H](N)CCCCN)C(=O)N[C@@H](CC(N)=O)C(=O)N[C@@H]([C@@H](C)O)C(=O)N[C@@H](C)C(=O)N[C@@H]([C@@H](C)O)C(=O)N1)C(N)=O` (H-KCNTATCA-NH2; linker 2-7 via CH2CH2), the Activity is reported as “inactive”. For `C[C@H](NC(=O)[C@@H]1CSCCCSC[C@H](NC(=O)[C@@H](N)CCCCN)C(=O)N[C@@H](CC(N)=O)C(=O)N[C@@H]([C@@H](C)O)C(=O)N[C@@H](C)C(=O)N[C@@H]([C@@H](C)O)C(=O)N1)C(N)=O` (H-KCNTATCA-NH2; linker 2-7 via X1), the Activity was “inactive”. With `C[C@H](NC(=O)[C@@H]1CSCc2ccccc2CSC[C@H](NC(=O)[C@@H](N)CCCCN)C(=O)N[C@@H](CC(N)=O)C(=O)N[C@@H]([C@@H](C)O)C(=O)N[C@@H](C)C(=O)N[C@@H]([C@@H](C)O)C(=O)N1)C(N)=O` (H-KCNTATCA-NH2; linker 2-7 via oXylylene) the Activity was “inactive”. For `C[C@H](NC(=O)[C@@H]1CSCc2ccc(cc2)CSC[C@H](NC(=O)[C@@H](N)CCCCN)C(=O)N[C@@H](CC(N)=O)C(=O)N[C@@H]([C@@H](C)O)C(=O)N[C@@H](C)C(=O)N[C@@H]([C@@H](C)O)C(=O)N1)C(N)=O` (H-KCNTATCA-NH2; linker 2-7 via pXylylene), the Activity was “Active”. With `C[C@H](NC(=O)[C@@H]1CSCCC(=O)NCCCC[C@H](NC(=O)[C@@H](N)CCCCN)C(=O)N[C@@H](CC(N)=O)C(=O)N[C@@H]([C@@H](C)O)C(=O)N[C@@H](C)C(=O)N[C@@H]([C@@H](C)O)C(=O)N1)C(N)=O` (H-KKNTATCA-NH2; linker 2-7 via X2) the Activity was “inactive”. In the case of `C[C@H](NC(=O)[C@@H]1Cn2cc(nn2)C[C@H](NC(=O)[C@@H](N)CCCCN)C(=O)N[C@@H](CC(N)=O)C(=O)N[C@@H]([C@@H](C)O)C(=O)N[C@@H](C)C(=O)N[C@@H]([C@@H](C)O)C(=O)N1)C(N)=O` (H-K[Pra]NTAT[Dap(N3)]A-NH2; triazole 2-7), the Activity is reported as “inactive”.
